The results in this text go back to US11618743B2, “Herbicidal compounds” (SYNGENTA PARTICIPATIONS AG, priority 2017, dated 2023).

The structures appear in SMILES notation. Where two headings read alike, the source gives them in different places.

Type in all cases: in vivo
In assay [1] the test system is Amaranthus retroflexus (AMARE). Briefly: Post-emergence efficacy, Method B. The settings on record: 360 h, evaluated after 15 days, read-out: Control of weed species after post-emergence application, AMARE (100=total damage to plant; 0=no damage to plant); for pest or weed control at 1000 g/ha: Application Rate 1000 g/Ha; for pest or weed control at 500 g/ha: Application Rate 500 g/Ha. The protocol: (§1) An “instant formulation”, known as the IF50, containing 50 g/L of the “technical” (i.e. unformulated) active ingredient was prepared by dissolving the active ingredient in a mixture of organic solvents and emulsifier, details of which are provided in the table. This IF50 was then mixed with a small, variable amount of acetone to aid dissolution, before addition of an aqueous solution of 1% v/v ammonium sulphate+1% v/v Empicol ESC70 (Sodium lauryl ether sulphate) adjuvant, as the aqueous diluent, to form an aqueous spray solution which contains a predetermined concentration of the active ingredient (which varies depending on the application rate of the active ingredient to the plants).
(§2) Composition of the mixture of organic solvents and emulsifier used as a base for the instant formulation.
(§3) This aqueous spray solution was then sprayed onto the plants, after about 12 days' cultivation. The plants were grown from seeds sown in standard soil, placed in a glasshouse under controlled conditions (at 24/18° C. or 20/16° C., day/night; 16 hours light; 65% humidity). After spray application the plants were then grown on in a glasshouse under the same conditions and watered twice daily. After 15 days the test was evaluated (100=total damage to plant; 0=no damage to plant).
(§4) Ipomoea hederacea (IPOHE), Euphorbia heterophylla (EPHHL), Chenopodium album (CHEAL), 20 Amaranthus retroflexus (AMARE), Lolium perenne (LOLPE), Digitaria sanguinalis (DIGSA), Eleusine indica (ELEIN), Echinochloa crus-galli (ECHCG), Setaria faberi (SETFA)

For assay [2], the system named is Euphorbia heterophylla (EPHHL). Nature of the assay: Post-emergence efficacy, Method B. The settings on record: 360 h, evaluated after 15 days, read-out: Control of weed species after post-emergence application, EPHHL (100=total damage to plant; 0=no damage to plant); for pest or weed control at 1000 g/ha: Application Rate 1000 g/Ha; for pest or weed control at 500 g/ha: Application Rate 500 g/Ha. The protocol: as §1, §2, §3, §4

The test system of assay [3] is Lolium perenne (LOLPE). Nature of the assay: Post-emergence efficacy, Method B. The settings on record: 360 h, read-out: Control of weed species after post-emergence application, LOLPE (100=total damage to plant; 0=no damage to plant). Here is the method: as §1, §2, §3, §4
Assay [4] concerns Ipomoea hederacea (IPOHE). Briefly: Post-emergence efficacy, Method B. The settings on record: 360 h, read-out: Control of weed species after post-emergence application, IPOHE (100=total damage to plant; 0=no damage to plant). Here is the method:
as §1, §2, §3, §4

The test system of assay [5] is Echinochloa crus-galli (ECHCG). Briefly: Post-emergence efficacy, Method B. Particulars: 360 h, read-out: Control of weed species after post-emergence application, ECHCG (100=total damage to plant; 0=no damage to plant). Here is the method:
as §1, §2, §3, §4

In assay [6] the test system is Setaria faberi (SETFA). Briefly: Post-emergence efficacy, Method B. Particulars: 360 h, evaluated after 15 days, read-out: Control of weed species after post-emergence application, SETFA (100=total damage to plant; 0=no damage to plant); for pest or weed control at 1000 g/ha: Application Rate 1000 g/Ha; for pest or weed control at 500 g/ha: Application Rate 500 g/Ha. The protocol:
as §1, §2, §3, §4

For assay [7], the system named is Digitaria sanguinalis (DIGSA). Nature of the assay: Post-emergence efficacy, Method B. Particulars: 360 h, evaluated after 15 days, read-out: Control of weed species after post-emergence application, DIGSA (100=total damage to plant; 0=no damage to plant); for pest or weed control at 1000 g/ha: Application Rate 1000 g/Ha; for pest or weed control at 500 g/ha: Application Rate 500 g/Ha. Here is the method: as §1, §2, §3, §4

Assay [8] has as its system Chenopodium album (CHEAL). Nature of the assay: Post-emergence efficacy, Method B. Particulars: 360 h, read-out: Control of weed species after post-emergence application, CHEAL (100=total damage to plant; 0=no damage to plant). Here is the method:
as §1, §2, §3, §4

Assay [9] relates to Eleusine indica (ELEIN). Nature of the assay: Post-emergence efficacy, Method B. The settings on record: 360 h, read-out: Control of weed species after post-emergence application, ELEIN (100=total damage to plant; 0=no damage to plant). The protocol: as §1, §2, §3, §4
Assay [10] relates to Echinochloa crus-galli (ECHCG). Briefly: Post-emergence efficacy, Method A. Particulars: Application rate 500 g/Ha; evaluated after 13 days; 100=total damage to plant, 0=no damage. In a few lines:
(§5)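 Plants grown 14 days in pots of standard soil in a glasshouse (24/16 °C day/night, 14 h light, 65% humidity), then sprayed post-emergence with compound formulated in acetone and IF50 and diluted in 0.25% or 1% Empicol ESC70 + 1% ammonium sulphate. Damage scored after 13 days, 0–100 (100 = total damage).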

Assay [11] deals with Setaria faberi (SETFA). Briefly: Post-emergence efficacy, Method A. The settings on record: Application rate 500 g/Ha; evaluated after 13 days; 100=total damage to plant, 0=no damage. In a few lines: as §5
For assay [12], the system named is Digitaria sanguinalis (DIGSA). Briefly: Post-emergence efficacy, Method A. Particulars: Application rate 500 g/Ha; evaluated after 13 days; 100=total damage to plant, 0=no damage. The essentials: as §5
Setting [13] is: Method B, Application Rate 500 g/Ha, evaluated after 15 days.
[14] abbreviates: Method B, Application Rate 1000 g/Ha, evaluated after 15 days.

As to `O=S(=O)([O-])CC[n+]1ccc(-c2cccnn2)cn1` [Compound A213, 2-(4-pyridazin-1-ium-3-ylpyridazin-1-ium-1-yl)ethanesulfonate chloride], the pest or weed control at 1000 g/ha was 100% in assay [1]; 100% in [2]; 90% in [3]; 80% in assay [4]; 100% in [5]; 100% in assay [6]. Moreover, the pest or weed control at 1000 g/ha came to 100% in assay [7], 80% in assay [8] and 100% in [9].

Consider `O=S(=O)([O-])CC[n+]1ccc(-c2ccncn2)cn1` [Compound A4], for which the pest or weed control at 500 g/ha came to 100% in [1]; 100% in assay [2]; 90% in assay [3] (setting [13]); 100% in assay [4] (setting [13]); 70% in assay [5] (setting [13]); 40% in [6]. Besides, the pest or weed control at 500 g/ha in assay [7] was determined as 100%; in assay [8] (setting [13]), 80%; in [9] (setting [13]), 80%.

In the case of `Nc1ccnc(-c2cc[n+](CCC(=O)O)nc2)n1` [Compound A41], the pest or weed control at 1000 g/ha was determined as 100% in assay [1]; 100% in [2]; 60% in assay [3]; 20% in assay [4]; 100% in assay [5]; 100% in [6]. Besides, the pest or weed control at 1000 g/ha in [7] was found to be 100%; in [8] it was 90%; in assay [9], 50%.

Regarding `Cl.N[C@@H](CCC[n+]1ccc(-c2ncccn2)cn1)C(=O)O.[Cl-]` [Compound A211, [(1S)-1-carboxy-4-(4-pyrimidin-2-ylpyridazin-1-ium-1-yl)butyl]ammonium Dichloride], the pest or weed control at 500 g/ha is 100% in assay [1]; 80% in assay [2]; 10% in assay [3]; 100% in assay [4]; 100% in assay [5]; 100% in assay [6]. Besides, the results for the pest or weed control at 500 g/ha in assay [7], in assay [8] and in [9] were 100%, 90% and 100%, respectively. The “Control of weed species after post-emergence application, ECHCG” value in [10] is reported as 100. Also, the “Control of weed species after post-emergence application, SETFA” value in assay [11] came to 100. The “Control of weed species after post-emergence application, DIGSA” value in assay [12] is listed as 100.

Turning to `O=C(O)CC[n+]1ccc(-c2ccncn2)cn1` [Compound A28], the pest or weed control at 1000 g/ha in assay [1] was found to be 100%; in assay [2], 100%; in [3] it was 70%; in [4], 100%; in assay [5], 100%; in assay [6] it was 40%. The pest or weed control at 1000 g/ha in [7] turned out to be 100%; in [8] it was 90%; in assay [9], 100%.

As to `O=C(O)CC[n+]1ccc(-c2cccnn2)cn1` [Compound A138, 3-(4-pyridazin-3-ylpyridazin-1-ium-1-yl)propanoic acid chloride], the pest or weed control at 1000 g/ha in [1] is 100%; in assay [2] it was 100%; in [3], 100%; in [4], 40%; in assay [5], 100%; in [6] it was 100%. Moreover, the pest or weed control at 1000 g/ha in [7], in assay [8] and in assay [9] was 100% in each case.

In the case of `N[C@H](CC[n+]1ccc(-c2ncccn2)cn1)C(=O)O` [Compound A207, [(1R)-1-carboxy-3-(4-pyrimidin-2-ylpyridazin-1-ium-1-yl)propyl]ammonium 2,2,2-trifluoroacetate], the pest or weed control at 1000 g/ha was determined as 100% in assay [1]; 70% in [2]; 20% in assay [3]; 100% in assay [4]; 100% in [5]; 100% in assay [6]. The pest or weed control at 1000 g/ha is 90% in assay [7], 90% in assay [8] and 100% in [9].

Consider `O=C([O-])CCC[n+]1ccc(-c2ncccn2)cn1` [Compound A220], for which the pest or weed control at 1000 g/ha came out at 100% in [1]; 100% in assay [2]; 90% in assay [3] (setting [14]); 30% in [4] (setting [14]); 90% in assay [5] (setting [14]); 30% in assay [6]. Also, the pest or weed control at 1000 g/ha came to 100% in assay [7], 90% in assay [8] (setting [14]) and 100% in assay [9] (setting [14]).

On to `N#C[N-]C(=O)CC[n+]1ccc(-c2ncccn2)cn1` [Compound A226], for which the pest or weed control at 1000 g/ha in assay [1] stood at 100%; in [3] (setting [14]), 70%; in assay [4] (setting [14]), 100%; in assay [5] (setting [14]), 100%; in assay [6], 70%; in assay [7], 100%. In addition, the pest or weed control at 1000 g/ha in assay [8] (setting [14]) is 100%.
